# Data from US6677368B2, “4-aryl substituted indolinones” (Sugen, Inc., priority 2000, dated 2004).
# pIC50: −log10 of the molar value.
# Key:
# Type in all cases: biochemical
# SRC = target: T1, SRC (Homo sapiens, UniProt P12931); test: Src transphosphorylation assay; settings: recombinant human Src, poly(Glu-Tyr) substrate
# T1 construct: purchased UBI 14-117
# Description: Src Transphosphorylation Assay
# This assay is used to screen for inhibitors of the tyrosine kinase Src.
# 1. Coating buffer: PBS containing sodium azide (0.2 mg/ml).
# 3. Wash buffer: PBS containing 0.05% v/v Tween 20 (PBS-TWEEN)
# 5. ATP (40 [M)+MgCl2 (80 mM) in distilled water.
# 6. MgCl2 (80 mM) in distilled water (for no ATP blanks).
# 7. Test compounds, 10 mM in DMSO.
# 8. Assay Buffer: 100 mM HEPES, pH 7.4, containing 2 mM DTT, 0.2 mM sodium orthovanadate and 0.2 mgs/ml BSA.
# 9. Partially purified recombinant human Src (UBI (14-117)
# 10. Anti-phosphotyrosine (SUGEN rabbit polyclonal anti-PY).
# 11. HRP-linked goat anti-rabbit Ig (Biosource International #6430)
# 12. HRP substrate ABTS or Pierce Peroxidase substrate.
# 13. Corning ELISA plates.
# 1. Coat plates with 100 μl of 20 μg/ml poly(Glu-Tyr) (Sigma Cat. No.P0275) containing 0.01% sodium azide. Hold overnight at 4° C.
# 2. Block with 1% BSA at 100 μl/well for one hour at room temperature.
# 3. Plate test compounds (10 mM in DMSO) at 2 ul/well on a Costar plate ready for dilution with dH2O and plating to reaction plates.
# 4. Dilute Src kinase 1:10,000 in Reaction Buffer, for 5 plates prepare 25 ml as follows: 2.5 mls 1M HEPES pH7.4 (stored sterile at 4° C.), 21.85 ml distilled water, 0.1 ml 5% BSA, 0.5 ml 10 mM sodium orthovanadate (stored sterile at 4° C.), 50 μl 1.0M DTT (stored frozen at […]), and 2.5 μl Src Kinase (stored frozen at −80° C.).
# 5. Add 48 μl of distilled water to the 2 ∥l of each compound in the dilution plate then add 25 μl/well of this to the reaction plate.
# 6. Add 50 μl of […] to each reaction buffer well and then 25 μl ATP-MgCl2/well (MgCl2 only to no ATP blanks). Incubate at room temperature for 15 minutes on plate shaker. Stop reaction by adding 25 μl of 0.5M EDTA to each well.
# 7. Wash 4× with PBS-TWEEN.
# 8. […] Incubate with continuous shaking at room temperature for one hour.
# 9. Wash plates 4× with PBS-TWEEN.
# 10. Add 100 μl HPP-linked Ig (1:5,000) in PBS-TWEEN containing 0.5% BSA, 0.025% Non-fat milk powder, 100 μM sodium orthovanadate. Incubate with shaking at room temperature for one hour.
# 11. Wash plates 4× with PBS-TWEEN and then once with PBS.
# 12. Develop plate using ABTS or other peroxidase substrate.
# PDGFR = target: T2, PDGFR (UniProt P09619); test: PDGFR bioassay (ELISA, in vitro kinase activity); settings: PDGFR-β expressing NIH 3T3 cell lysate, 20 μM ATP
# T2 construct: PDGFR-β expressing NIH 3T3 cell lysate (SUGEN, Inc.)
# Description: This assay is used to the in vitro kinase activity of PDGFR in an ELISA assay.
# 1. Corning 96-well ELISA plates
# 2. 28D4C10 monoclonal anti-PDGFR antibody (SUGEN, Inc.).
# 5. Blocking Buffer (same as for EGFR bioassay).
# 6. PDGFR-β expressing NIH 3T3 cell lysate (SUGEN, Inc.).
# 11. Kinase buffer phosphorylation mix: for 10 ml, mix 250 μl 1M TRIS, 200 μl 5M NaCl, 100 μl 1M MnCl2 and 501l 100 mM Triton X-100 in enough dH2O to make 10 ml.
# 12. NUNC 96-well V bottom polypropylene plates.
# 14. Rabbit polyclonal anti-phosphotyrosine serum (SUGEN, Inc.).
# 15. Goat anti-rabbit IgG peroxidase conjugate (Biosource Cat. No. ALI0404).
# 17. Hydrogen peroxide, 30% solution.
# 1. Coat Corning 96 well ELISA plates with […] 28D4C 10 in 100 μl PBS per well, hold overnight at 4° C.
# 2. Remove unbound 28D4C10 from wells by inverting plate to remove liquid. Wash 1× with dH2O. Pat the plate on a paper towel to remove excess liquid.
# 3. Add 150 μl of Blocking Buffer to each well. Incubate for 30 min. at room temperature with shaking.
# 4. Wash plate 3× with deionized water, then once with TBST. Pat plate on a paper towel to remove excess liquid and bubbles.
# 5. Dilute lysate in HNTG (10 μg lysate/100 μl HNTG).
# 6. Add 100 μl of diluted lysate to each well. Shake at room temperature for 60 min.
# 7. Wash plates as described in Step 4.
# 8. Add 80 μl working kinase buffer mix to ELISA plate containing captured PDGFR.
# 9. Dilute test compound 1:10 in TBS in 96-well polypropylene plates.
# 10. Add 10 μl diluted test compound to -ELISA plate. To control wells, add 10 μl TBS+10% DMSO. Incubate with shaking for 30 minutes at room temperature.
# 11. Add 10 μl ATP directly to all wells except negative control well (final well volume should be approximately 100 μl with 20 μM ATP in each well.) Incubate 30 minutes with shaking.
# 12. Stop reaction by adding 10 μl of EDTA solution to each well.
# 13. Wash 4× with deionized water, twice with TBST.
# 14. Add 100 μl anti-phosphotyrosine (1:3000 dilution in TBST) per well.
# Incubate with shaking for 30-45 min. at room temperature.
# 16. Add 100 μl Biosource Goat anti-rabbit IgG peroxidase conjugate (1:2000 dilution in TBST) to each well. Incubate with shaking for 30 min. at room temperature.
# 18. Add 100 μl of ABTS/H2O2 solution to each well.
# 19. Incubate 10 to 30 minutes with shaking. Remove any bubbles.
# 20. If necessary stop reaction with the addition of 100 μl 0.2 M HCl per well.
# 21. Read assay on Dynatech MR7000 ELISA reader with test filter at 410 nM and reference filter at 630 nM.
# P38 = P38 (Homo sapiens, UniProt Q16539); test: P38 kinase inhibition
# EGFR = EGFR (Homo sapiens, UniProt P00533); test: EGFR kinase inhibition
# EGFR, sequence (P00533 25-1210, species assumed): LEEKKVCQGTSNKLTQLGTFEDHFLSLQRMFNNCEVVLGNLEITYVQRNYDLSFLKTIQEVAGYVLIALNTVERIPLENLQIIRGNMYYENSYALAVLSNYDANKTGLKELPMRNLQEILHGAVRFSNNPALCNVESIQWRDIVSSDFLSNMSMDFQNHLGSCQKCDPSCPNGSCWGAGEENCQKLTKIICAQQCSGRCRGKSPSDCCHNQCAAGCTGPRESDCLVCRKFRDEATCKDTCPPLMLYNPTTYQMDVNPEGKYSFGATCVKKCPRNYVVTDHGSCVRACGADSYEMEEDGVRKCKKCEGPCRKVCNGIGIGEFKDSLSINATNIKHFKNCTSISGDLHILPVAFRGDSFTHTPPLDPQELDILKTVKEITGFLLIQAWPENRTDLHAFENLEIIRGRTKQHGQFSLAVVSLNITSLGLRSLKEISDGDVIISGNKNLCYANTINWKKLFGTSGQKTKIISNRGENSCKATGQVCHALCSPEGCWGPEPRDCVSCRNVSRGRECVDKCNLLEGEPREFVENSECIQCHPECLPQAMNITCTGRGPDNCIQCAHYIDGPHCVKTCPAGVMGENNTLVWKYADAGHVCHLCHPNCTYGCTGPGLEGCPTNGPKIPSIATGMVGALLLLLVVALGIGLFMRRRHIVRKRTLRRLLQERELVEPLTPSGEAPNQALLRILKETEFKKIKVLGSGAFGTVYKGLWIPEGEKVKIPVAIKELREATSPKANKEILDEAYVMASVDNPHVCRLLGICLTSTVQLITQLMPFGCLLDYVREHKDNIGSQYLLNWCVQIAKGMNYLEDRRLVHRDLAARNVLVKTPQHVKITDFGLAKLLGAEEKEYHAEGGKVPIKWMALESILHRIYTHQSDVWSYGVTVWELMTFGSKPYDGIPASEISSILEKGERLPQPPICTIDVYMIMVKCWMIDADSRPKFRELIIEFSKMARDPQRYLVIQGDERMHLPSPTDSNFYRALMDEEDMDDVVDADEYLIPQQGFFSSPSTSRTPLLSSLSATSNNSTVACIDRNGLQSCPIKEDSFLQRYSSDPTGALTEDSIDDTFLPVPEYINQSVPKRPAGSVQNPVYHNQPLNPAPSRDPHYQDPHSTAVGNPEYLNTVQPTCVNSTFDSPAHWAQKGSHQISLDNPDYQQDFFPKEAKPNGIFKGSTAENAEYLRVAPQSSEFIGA
# T1 sequence (P12931 whole entry): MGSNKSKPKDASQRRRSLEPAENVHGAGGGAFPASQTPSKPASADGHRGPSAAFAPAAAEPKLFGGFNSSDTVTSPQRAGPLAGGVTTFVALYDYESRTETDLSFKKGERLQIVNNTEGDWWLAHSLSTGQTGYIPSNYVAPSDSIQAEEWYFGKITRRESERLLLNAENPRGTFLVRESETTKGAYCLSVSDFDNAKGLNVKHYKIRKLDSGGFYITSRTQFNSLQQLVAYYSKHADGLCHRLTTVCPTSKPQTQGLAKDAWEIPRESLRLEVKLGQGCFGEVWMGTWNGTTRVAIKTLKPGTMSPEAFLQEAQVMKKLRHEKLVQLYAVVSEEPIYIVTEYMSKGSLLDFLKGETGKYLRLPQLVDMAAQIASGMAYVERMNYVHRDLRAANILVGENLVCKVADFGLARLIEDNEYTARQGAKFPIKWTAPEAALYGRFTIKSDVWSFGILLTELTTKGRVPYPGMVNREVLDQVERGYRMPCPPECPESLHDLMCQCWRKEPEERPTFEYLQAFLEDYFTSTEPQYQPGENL
# P38, sequence (Q16539 whole entry): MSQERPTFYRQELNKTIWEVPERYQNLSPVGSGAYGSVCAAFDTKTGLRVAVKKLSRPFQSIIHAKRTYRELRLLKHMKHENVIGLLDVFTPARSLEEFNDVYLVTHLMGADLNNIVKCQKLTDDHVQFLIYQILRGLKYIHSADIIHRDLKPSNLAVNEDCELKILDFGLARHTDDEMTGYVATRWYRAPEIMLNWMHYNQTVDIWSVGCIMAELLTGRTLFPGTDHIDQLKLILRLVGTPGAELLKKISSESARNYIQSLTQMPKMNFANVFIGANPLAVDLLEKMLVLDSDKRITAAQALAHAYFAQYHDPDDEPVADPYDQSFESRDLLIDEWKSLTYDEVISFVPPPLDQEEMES
pIC50 (SRC),pIC50 (PDGFR),pIC50 (P38),pIC50 (EGFR),Structure (SMILES)
5.31,5.53,< 5.00,4.79,"Cc1[nH]c(/C=C2\C(=O)Nc3cccc(-c4ccc(F)cc4)c32)c(C)c1C(=O)NCCN1CCCC1 [Example 6, 5-[4-(4-Fluoro-phenyl)-2-oxo-1,2-dihydro-indol-3-ylidenemethyl]-2,4-dimethyl-1H-pyrrole-3-carboxylic Acid (2-Pyrrolidin-1-yl-ethyl)-amide]"
5.01,4.93,< 5.00,–,"Cc1cc(C(=O)N2CC[C@@H](N(C)C)C2)c(/C=C2\C(=O)Nc3cccc(-c4ccc(Cl)cc4)c32)[nH]1 [Example 25, 4-(4-Chloro-phenyl)-3-[3-((R)-3-dimethylamino-pyrrolidine-1-carbonyl)-5-methyl-1H-pyrrol-2-ylmethylene]-1,3-dihydro-indol-2-one]"
4.86,< 4.70,< 5.00,–,Cc1cc(C(=O)N2C[C@@H](C)N[C@@H](C)C2)c(/C=C2\C(=O)Nc3cccc(-c4ccc(Cl)cc4)c32)[nH]1 [Example 27]
5.27,4.93,< 5.00,–,"Cc1cc(C(=O)N2CC[C@H](N(C)C)C2)c(/C=C2\C(=O)Nc3cccc(-c4cccc(Cl)c4)c32)[nH]1 [Example 32, 4-(3-Chloro-phenyl)-3-[3-((S)-3-dimethylamino-pyrrolidine-1-carbonyl)-5-methyl-1H-pyrrol-2-ylmethylene]-1,3-dihydro-indol-2-one]"
5.14,< 4.70,< 5.00,–,"Cc1cc(C(=O)NCCn2ccnn2)c(/C=C2\C(=O)Nc3cccc(-c4cccc(Cl)c4)c32)[nH]1 [Example 34, 2-[4-(3-Chloro-phenyl)-2-oxo-1,2-dihydro-indol-3-ylidenemethyl]-5-methyl-1H-pyrrole-3-carboxylic Acid (2-[1,2,3]Triazol-1-yl-ethyl)-amide]"
5.01,5.80,< 5.00,–,"Cc1cc(C(=O)N2C[C@@H](C)N[C@@H](C)C2)c(/C=C2\C(=O)Nc3cccc(-c4cccc(Cl)c4)c32)[nH]1 [Example 35, 4-(3-Chloro-phenyl)-3-[3-((cis)-3,5-dimethyl-piperazine-1-carbonyl)-5-methyl-1H-pyrrol-2-ylmethylene]-1,3-dihydro-indol-2-one]"
5.18,4.96,< 5.00,–,"COc1ccc(-c2cccc3c2/C(=C/c2[nH]c(C)c(C(=O)N4C[C@@H](C)N[C@@H](C)C4)c2C)C(=O)N3)cc1 [Example 40, 3-[4-((cis)-3,5-Dimethyl-piperazine-1-carbonyl)-3,5-dimethyl-1H-pyrrol-2-ylmethylene]-4-(4-methoxy-phenyl)-1,3-dihydro-indol-2-one]"
5.27,5.42,< 5.00,–,"COc1ccc(-c2cccc3c2/C(=C/c2[nH]c(C)cc2C(=O)NCCN2CCCC2)C(=O)N3)cc1 [Example 41, 2-[4-(4-Methoxy-phenyl)-2-oxo-1,2-dihydro-indol-3-ylidenemethyl]-5-methyl-1H-pyrrole-3-carboxylic Acid (2-Pyrrolidin-1-yl-ethyl)-amide]"
6.18,5.38,< 5.00,–,"CCN(CC)CCNC(=O)c1c(C)[nH]c(/C=C2\C(=O)Nc3cccc(-c4cccc(OC)c4)c32)c1C [Example 46, 5-[4-(3-Methoxy-phenyl)-2-oxo-1,2-dihydro-indol-3-ylidenemethyl]-2,4-dimethyl-1H-pyrrole-3-carboxylic Acid (2-Diethylamino-ethyl)-amide]"
5.42,5.08,< 5.00,–,"COc1cccc(-c2cccc3c2/C(=C/c2[nH]c(C)c(C(=O)NCCn4ccnn4)c2C)C(=O)N3)c1 [Example 48, 5-[4-(3-Methoxy-phenyl)-2-oxo-1,2-dihydro-indol-3-ylidenemethyl]-2,4-dimethyl-1H-pyrrole-3-carboxylic Acid (2-[1,2,3]Triazol-1-yl-ethyl)-amide]"
6.27,5.81,< 5.00,–,"COc1cccc(-c2cccc3c2/C(=C/c2[nH]c(C)c(C(=O)NCCN(C(C)C)C(C)C)c2C)C(=O)N3)c1 [Example 52, 5-[4-(3-Methoxy-phenyl)-2-oxo-1,2-dihydro-indol-3-ylidenemethyl]-2,4-dimethyl-1H-pyrrole-3-carboxylic Acid (2-Diisopropylamino-ethyl)-amide]"
4.87,< 4.70,< 5.00,–,Cc1[nH]c(/C=C2\C(=O)Nc3cccc(-c4ccc(Br)cc4)c32)c(C)c1C(=O)N1CCN(C)CC1 [Example 53]
5.32,< 4.70,< 5.00,–,"Cc1[nH]c(/C=C2\C(=O)Nc3cccc(-c4ccc(Br)cc4)c32)c(C)c1C(=O)N1C[C@@H](C)N[C@@H](C)C1 [Example 57, 4-(4-Bromo-phenyl)-3-[4-[(cis)-3,5-dimethyl-piperazine-1-carbonyl)-3,5-dimethyl-1H-pyrrol-2-ylmethylene]-1,3-dihydro-indol-2-one]"
5.32,4.79,< 5.00,–,"Cc1cc(C(=O)NCCN2CCCC2)c(/C=C2\C(=O)Nc3cccc(-c4ccc(Br)cc4)c32)[nH]1 [Example 58, 2-[4-(4-Bromo-phenyl)-2-oxo-1,2-dihydro-indol-3-ylidenemethyl]-5-methyl-1H-pyrrole-3-carboxylic Acid (2-Pyrrolidin-1-yl-ethyl)-amide]"
5.76,5.04,5.20,–,"CCN(CC)CCNC(=O)c1c[nH]c(/C=C2\C(=O)Nc3cccc(-c4ccc(Br)cc4)c32)c1C [Example 61, 5-[4-(4-Bromo-phenyl)-2-oxo-1,2-dihydro-indol-3-ylidenemethyl]-4-methyl-1H-pyrrole-3-carboxylic Acid (2-Diethylamino-ethyl)-amide]"
5.94,5.66,–,4.82,"CCN(CC)CCNC(=O)c1c(C)[nH]c(/C=C2\C(=O)Nc3cccc(-c4cccc(Br)c4)c32)c1C [Example 63, 5-[4-(3-Bromo-phenyl)-2-oxo-1,2-dihydro-indol-3-ylidenemethyl]-2,4-dimethyl-1H-pyrrole-3-carboxylic Acid (2-Diethylamino-ethyl)-amide]"
